According to US20170226059A1, “APOE4-TARGETED THERAPUTICS THAT INCREASE SIRT1” (The Regents of the University of California, priority 2014, published 2017):

These compounds were tested on SirT1 (assay: Primary AlphaLISA screening assay: SirT1 levels in N2a cells stably transfected with ApoE4). Conditions: N2A neuroblastoma cells stably transfected with ApoE4.
Type: cell-based, mouse
Experimental: We have developed a primary screening assay that is HTS formatable; the assay would be done on N2a cells (mouse neuroblastoma cells) that have been stably transfected with ApoE3 and ApoE4. The cells are treated with drugs and the SirT1 levels are measured using the AlphaLISA assay that we have developed, e.g., as shown in FIG. 11. The illustrated AlphaLISA uses an antibody (Ab, E104, Abcam) that binds the C-terminus of SirT1 and is on the acceptor bead. The N-terminal Ab (D1D7, Abcam) is biotinylated and binds to the donor bead. For the primary assay the Neuro-2a (N2a) cells stably expressing similar levels of hApoE3 or hApoE4 are used. The primary assay can be done in triplicate. The N2a cells have reasonably good endogenous levels of APP thus avoiding the necessity of APP transfection. In general, for the assays N2a cells stably transfected with hApoE3 (E3) or hApoE4 (E4) are plated, e.g., at […] in 384-well plates in […] of growth medium and allowed to attached for 3 h. The E4 cells are treated with compounds overnight, E3 cells are controls. The following day, growth medium is removed and cells are lysed with AlphaLysis buffer complemented with protease and phosphatase inhibitors.
Then, the AlphaLISA assay is run and molecules that can increase or reverse the SirT1 levels in ApoE4 cells are identified. A preliminary estimate, based on the initial screening which yielded two reproducible “hits” from a set of 1000 compounds, which is a 0.2% hit-rate. […] Our initial screening was done on a small library of about 1000 compounds. The assay is translatable to a HTS format.
Clc1cccc(Cl)c1N=C1NCCN1 [Compound A02, clonidine] was tested, and the “SirT1 levels (dose-response)” value was “flat”.

Same assay, conditions: initial screen of about 1000 compounds
For CNCCC(Oc1ccc(C(F)(F)F)cc1)c1ccccc1 (centres unmarked) [Prozac], the “effect on SirT1 levels in initial screen” value was “no affect on SirT1 levels”.

Same assay, conditions: primary screening assay, ApoE4 cells
With CC(C)(Cc1ccc(Cl)cc1)OC(=O)C(N)CCCCN (centres unmarked) [Compound 13, 1-(4-chlorophenyl)-2-methylpropan-2-yl 2,6-diaminohexanoate] the “Primary Assay (SrT1 increase)” value was “II (activity II 10-30%)”. In the case of CC(C)(Cc1ccc(Cl)cc1)OC(=O)CCN [Compound 17, 1-(4-chlorophenyl)-2-methylpropan-2-yl 3-aminopropanoate], the “Primary Assay (SrT1 increase)” value was “I (activity I < 10%)”. For CC(N)C(=O)OC(C)(C)Cc1ccc(F)c(F)c1 (centres unmarked) [Compound 3, 1-(3,4-difluorophenyl)-2-methylpropan-2-yl 2-aminopropanoate], the “Primary Assay (SrT1 increase)” value was “III (activity III > 30 SrT1 increase)”. With CC(C)CC(N)C(=O)OC(C)(C)Cc1ccc(Cl)cc1 (centres unmarked) [Compound 5, 1-(4-chlorophenyl)-2-methylpropan-2-yl 2-amino-4-methylpentanoate] the “Primary Assay (SrT1 increase)” value was “I (activity I < 10%)”. With CC(N)C(=O)OC(C)(C)Cc1ccccc1 (centres unmarked) [Compound 1, 2-methyl-1-phenylpropan-2-yl 2-aminopropanoate] the “Primary Assay (SrT1 increase)” value was “II (activity II 10-30%)”. In the case of “1-(4-chlorophenyl)-2-methylpropan-2-yl pyrrolidine-2-carboxylate [Compound 20]”, the “Primary Assay (SrT1 increase)” value was “I (activity I < 10%)”. In the case of CC(N)C(=O)OC(C)(C)CCc1ccc(Cl)cc1 (centres unmarked) [Compound 12, 4-(4-chlorophenyl)-2-methylbutan-2-yl 2-aminopropanoate], the “Primary Assay (SrT1 increase)” value was “II (activity II 10-30%)”. In the case of CC(C)C(N)C(=O)OC(C)(C)Cc1ccc(Cl)cc1 (centres unmarked) [Compound 8, 1-(4-chlorophenyl)-2-methylpropan-2-yl 2-amino-3-methylbutanoate], the “Primary Assay (SrT1 increase)” value was “II (activity II 10-30%)”. CC(C)(Cc1ccc(Cl)cc1)OC(=O)C(N)CO (centres unmarked) [Compound 16, 1-(4-chlorophenyl)-2-methylpropan-2-yl 2-amino-3-hydroxypropanoate] was tested, and the “Primary Assay (SrT1 increase)” value was “II (activity II 10-30%)”. “2-amino-N-(1-(4-chlorophenyl)-2-methylpropan-2-yl)propanamide [Compound 15]” was tested, and the “Primary Assay (SrT1 increase)” value was “III (activity III > 30 SrT1 increase)”. For CC(C)(Cc1ccc(Cl)cc1)OC(=O)C1CCCCN1 (centres unmarked) [Compound 19, 1-(4-chlorophenyl)-2-methylpropan-2-yl piperidine-2-carboxylate], the “Primary Assay (SrT1 increase)” value was “II (activity II 10-30%)”. In the case of CC(N)C(=O)OC1(Cc2ccc(Cl)cc2)CCC1 (centres unmarked) [Compound 9, 1-(4-chlorobenzyl)cyclobutyl 2-aminopropanoate], the “Primary Assay (SrT1 increase)” value was “I (activity I < 10%)”. For CC(N)C(=O)OC(C)(C)Cc1ccc(F)cc1 (centres unmarked) [Compound 4, 1-(4-fluorophenyl)-2-methylpropan-2-yl 2-aminopropanoate], the “Primary Assay (SrT1 increase)” value was “II (activity II 10-30%)”. With CC(N)C(=O)NC(C)(C)Cc1ccc(F)c(F)c1 (centres unmarked) [Compound 22, 2-amino-N-(1-(3,4-difluorophenyl)-2-methylpropan-2-yl)propanamide] the “Primary Assay (SrT1 increase)” value was “III (activity III > 30 SrT1 increase)”. With CC(N)C(=O)OC(C)(C)Cc1cc(F)cc(F)c1 (centres unmarked) [Compound 14, 1-(3,5-difluorophenyl)-2-methylpropan-2-yl 2-aminopropanoate] the “Primary Assay (SrT1 increase)” value was “III (activity III > 30 SrT1 increase)”. With “1-(3,4-difluorophenyl)-2-methylpropan-2-yl 2-aminoethanoate [Compound 21]” the “Primary Assay (SrT1 increase)” value was “II (activity II 10-30%)”. CC(N)C(=O)OC1(Cc2ccc(Cl)cc2)CCCCC1 (centres unmarked) [Compound 10, 1-(4-chlorobenzyl)cyclohexyl 2-aminopropanoate] was tested, and the “Primary Assay (SrT1 increase)” value was “I (activity I < 10%)”. CC(C)(Cc1ccc(F)c(F)c1)NC(=O)C1CCCN1 (centres unmarked) [Compound 24, N-(1-(3,4-difluorophenyl)-2-methylpropan-2-yl)pyrrolidine-2-carboxamide] was tested, and the “Primary Assay (SrT1 increase)” value was “II (activity II 10-30%)”.
